From US5753678A, “Heterocyclic compounds” (Novo Nordisk A/S, priority 1995, dated 1998)
Where a name gives a salt, the structure may show the parent alone.

Tested on: histamine induced paw oedema
Assay: Histamine induced paw oedema
Format: in vivo, male Sprague-Dawley rats
Details: at 1 mg/kg, intraperitoneally 15 minutes before the anesthetics, rats, paw swelling 20 minutes after histamine
Protocol: II. Histamine induced paw oedema Values for in vivo inhibition of […] induced oedema for the compounds of the present invention were assessed in rats essentially as described by Amann et al. (Europ. J. Pharmacol. 30 279, 227-231, 1995). In brief 250-300 g male Sprague-Dawley rats were […] pentobarbital sodium, and placed on a 32 degree heated table. Ten minutes later histamine (50 microliter, 3 mg/ml) was injected in the right hind paw and 20 minutes hereafter the paw swelling was determined by water plethysmography (Ugo Basile). Test compounds were administered intraperitoneally at 15 minutes before the anesthetics. |Inhibition of histamine induced oedema at 1 mg/kg

With `Cl.O=C(O)[C@@H]1CCCN(CCC=C2c3ccccc3OCOc3ccccc32)C1` [Example 2, (R)-1-(3-(12H-Dibenzo[d,g][1,3]dioxocin-12-ylidene)-1-propyl)-3-piperidinecarboxylic acid hydrochloride] the “% oedema inhibition” value was 52%.
In the case of `CCOC(=O)[C@@H]1CCCN(CCC=C2c3ccccc3OCOc3ccccc32)C1` [Example 3, (R)-1-(3-(12H-Dibenzo[d,g][1,3]doxocin-12-ylidene)-1-propyl)-3-piperidinecarboxylic acid ethyl ester hydrochloride], the “% oedema inhibition” value is reported as 33%.
